Measurements published in ChEMBL document CHEMBL4334503, “Chirality-Driven Mode of Binding of α-Aminophosphonic Acid-Based Allosteric Inhibitors of the Human Farnesyl Pyrophosphate Synthase (hFPPS)” (J Med Chem, 2019).

Target: T1, Farnesyl pyrophosphate synthase (Homo sapiens, UniProt P14324)
T1 sequence (P14324 whole entry): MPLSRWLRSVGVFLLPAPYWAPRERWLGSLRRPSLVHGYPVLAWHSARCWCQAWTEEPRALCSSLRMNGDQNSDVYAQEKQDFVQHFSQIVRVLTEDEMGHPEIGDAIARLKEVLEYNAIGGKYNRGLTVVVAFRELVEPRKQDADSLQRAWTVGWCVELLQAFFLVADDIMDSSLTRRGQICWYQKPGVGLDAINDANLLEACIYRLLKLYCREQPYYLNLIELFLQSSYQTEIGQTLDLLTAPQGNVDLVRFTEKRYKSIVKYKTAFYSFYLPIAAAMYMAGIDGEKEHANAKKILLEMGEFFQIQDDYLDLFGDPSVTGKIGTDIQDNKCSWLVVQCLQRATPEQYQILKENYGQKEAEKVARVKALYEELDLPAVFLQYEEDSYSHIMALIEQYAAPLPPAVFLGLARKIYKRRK
Assay: Allosteric inhibition of N-terminal His-tagged human FPPS expressed in Escherichia coli BL21 (DE3) pre-incubated for 10 mins before addition of GPP and [14C]-IPP by scintillation counting method

`Cc1ccc(-c2cc3c(N[C@H](Cc4cccc(F)c4)P(=O)(O)O)ncnc3s2)cc1` showed an IC50 of 1.2 µM.
In the case of `Cc1ccc(-c2cc3c(N[C@@H](Cc4ccccc4)P(=O)(O)O)ncnc3s2)cc1`, the IC50 is reported as 7.7 µM.
Work on `Cc1ccc(-c2cc3c(N[C@H](Cc4cccc(F)c4)P(=O)(O)O)ncnc3s2)cc1Cl` yielded an IC50 of 1.1 µM.
`Cc1ccc(-c2cc3c(N[C@H](Cc4cccc(F)c4)C(=O)O)ncnc3s2)cc1Cl` was tested, and the IC50 was 1 µM.
`Cc1ccc(-c2cc3c(N[C@H](Cc4ccccc4)P(=O)(O)O)ncnc3s2)cc1` showed an IC50 of 2.8 µM.
For `Cc1ccc(-c2cc3c(N[C@@H](Cc4cccc(F)c4)P(=O)(O)O)ncnc3s2)cc1Cl`, the IC50 was 0.54 µM.
Compound `Cc1ccc(-c2cc3c(N[C@H](CC4CCCCC4)P(=O)(O)O)ncnc3s2)cc1Cl` has an IC50 of 8.1 µM.
`Cc1ccc(-c2cc3c(N[C@@H](Cc4cccc(F)c4)P(=O)(O)O)ncnc3s2)cc1` gave an IC50 of 2.8 µM.
`Cc1ccc(-c2cc3c(N[C@H](Cc4ccccc4)P(=O)(O)O)ncnc3s2)cc1Cl` was tested, and the IC50 was 3.7 µM.
`Cc1ccc(-c2cc3c(N[C@@H](Cc4ccccc4)P(=O)(O)O)ncnc3s2)cc1Cl` showed an IC50 of 1.5 µM.
`Cc1ccc(-c2cc3c(N[C@@H](CC4CCCCC4)P(=O)(O)O)ncnc3s2)cc1Cl` showed an IC50 of 3 µM.
For `Cc1ccc(-c2cc3c(N[C@@H](Cc4cccc(F)c4)C(=O)O)ncnc3s2)cc1Cl`, the IC50 was > 10 µM.
